Test results taken from patent publication US8575156B2, “Cyclic inhibitors of 11β-hydroxysteroid dehydrogenase 1” (Vitae Pharmaceuticals, Inc., priority 2007, dated 2013).
Like-named read-outs stand apart in the source and are kept apart here.

Biological target: 11β-HSD1 (Homo sapiens, UniProt P28845)
Assay: biochemical
Conditions: for IC50: IC50 Range, Biological Test Example 1, microsomes from CHO cells overexpressing human 11β-HSD1; for inhibition at 0.1 µM: read-out: Average % inhibition at 100 nM, Biological Test Example 1
[1] = read-out: Average % inhibition at 111.1 nM, Biological Test Example 1, 111.1 nM compound

Chain of 11β-HSD1 (P28845 whole entry): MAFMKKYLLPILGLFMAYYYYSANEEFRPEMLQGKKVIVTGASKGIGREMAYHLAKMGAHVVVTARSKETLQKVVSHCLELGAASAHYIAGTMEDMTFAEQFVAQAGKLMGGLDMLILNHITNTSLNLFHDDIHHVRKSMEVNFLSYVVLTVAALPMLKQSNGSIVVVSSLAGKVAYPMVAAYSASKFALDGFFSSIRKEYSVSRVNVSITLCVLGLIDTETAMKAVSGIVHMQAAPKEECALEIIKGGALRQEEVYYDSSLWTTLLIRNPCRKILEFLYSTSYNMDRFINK

Row | Compound | IC50 | inhibition at 0.1 µM (100 nM compound) | inhibition at 0.1 µM (100 nM) | inhibition at 0.1111 µM [1] | inhibition at 0.1111 µM (read-out: Average % inhibition at 111.1 nM)
1 | C=CC[C@]1(c2ccc(F)cc2)CCN([C@@H](C)c2ccc(-c3nnc(C)o3)cc2)C(=O)O1 [EXAMPLE 215, (R)-6-allyl-6-(4-fluorophenyl)-3-((S)-1-(4-(5-methyl-1,3,4-oxadiazol-2-yl)phenyl)ethyl)-1,3-oxazinan-2-one] | < 100 nM | 72.1% | – | – | –
2 | C[C@@H](c1ccc(N2CCCCS2(=O)=O)cc1)N1CC[C@](CCO)(c2ccc(F)cc2)OC1=O [EXAMPLE 259, (S)-6-(4-fluorophenyl)-6-(2-hydroxyethyl)-3-((S)-1-(4-(1,1-dioxo-hexahydro-1,2-thiazin-2-yl)phenyl)ethyl)-1,3-oxazinan-2-one] | < 100 nM | 43.1% | – | – | –
3 | C=CC[C@]1(c2ccc(F)cc2)CCN([C@@H](C)c2ccc(N3CCN(C)CC3)cc2)C(=O)O1 [EXAMPLE 231, (R)-6-allyl-6-(4-fluorophenyl)-3-((S)-1-(4-(4-methylpiperazin-1-yl)phenyl)ethyl)-1,3-oxazinan-2-one] | < 100 nM | 57% | – | – | –
4 | CC1(c2ccccc2)CCN(Cc2ccccc2Br)C(=O)O1 (stereo not shown) [EXAMPLE 72, 3-(2-bromobenzyl)-6-methyl-6-phenyl-1,3-oxazinan-2-one] | < 100 nM | – | – | 77.5% | –
5 | C[C@@H](c1ccc(-c2ccc(F)cc2)cc1)N1CC[C@](CCN2CCC2)(c2ccc(F)cc2)OC1=O [EXAMPLE 462, (R)-6-(2-(azetidin-1-yl)ethyl)-3-((S)-1-(4′-fluorobiphenyl-4-yl)ethyl)-6-(4-fluorophenyl)-1,3-oxazinan-2-one] | < 100 nM | – | 72.3% | – | –
6 | C[C@@H](c1ccc(-c2ccc(F)cc2)cc1)N1CC[C@](CCO)(c2cccs2)OC1=O (single isomer, unassigned) [EXAMPLE 218 Isomer 1] | < 100 nM | 97.4% | – | – | –
7 | C[C@@H](c1ccc(-c2ccc(F)cc2F)cc1)N1CC[C@](CCC(=O)O)(c2ccccc2)OC1=O [EXAMPLE 503, 3-((R)-3-((S)-1-(2′,4′-difluorobiphenyl-4-yl)ethyl)-2-oxo-6-phenyl-1,3-oxazinan-6-yl)propanoic acid] | < 100 nM | – | 90.1% | – | –
8 | CC1(c2ccccc2)CCN(c2ccnc(-c3ccc(F)cc3)n2)C(=O)O1 (stereo not shown) [EXAMPLE 55, 3-(2-(4-fluorophenyl)pyrimidin-4-yl)-6-methyl-6-phenyl-1,3-oxazinan-2-one] | 100 to 1000 nM | – | – | – | 3.7%
9 | C[C@@H](c1ccc(-c2ccc(F)cc2F)cc1)N1CC[C@](CC(O)CO)(c2ccccc2)OC1=O (single isomer, unassigned) [EXAMPLE 173 Isomer 1] | < 100 nM | 96.7% | – | – | –
10 | COc1ccc([C@H](C)N2CCC(C)(c3ccccc3)OC2=O)cc1 (stereo partly drawn) [EXAMPLE 85, 3-((S)-1-(4-methoxyphenyl)ethyl)-6-methyl-6-phenyl-1,3-oxazinan-2-one] | < 100 nM | – | – | 102% | –
11 | COc1ccc([C@H](C)N2CC[C@](CCC(C)(C)O)(c3ccc(F)cc3)OC2=O)cc1 [EXAMPLE 426, (R)-6-(4-fluorophenyl)-6-(3-hydroxy-3-methylbutyl)-3-((S)-1-(4-methoxyphenyl)ethyl)-1,3-oxazinan-2-one] | < 100 nM | – | 82.5% | – | –
12 | C[C@@H](c1cccc(OCC(=O)N2CCNCC2)c1)N1CCC(C)(c2ccccc2)OC1=O (mixture of isomers) [EXAMPLE 94, (R/S)-6-methyl-3-((S)-1-(3-(2-oxo-2-(piperazin-1-yl)ethoxy)phenyl)ethyl)-6-phenyl-1,3-oxazinan-2-one] | 100 to 1000 nM | – | – | 16.2% | –
13 | CNCC(O)C[C@]1(c2ccc(F)cc2)CCN([C@@H](C)c2ccc(-c3ccc(F)cc3F)cc2)C(=O)O1 (stereo partly drawn) [EXAMPLE 265, (6S)-3-((S)-1-(2′,4′-difluorobiphenyl-4-yl)ethyl)-6-(4-fluorophenyl)-6-(2-hydroxy-3-(methylamino)propyl)-1,3-oxazinan-2-one] | < 100 nM | 56.8% | – | – | –
14 | O=C1OC(CCO)(c2ccccc2)CCN1c1ccc(F)c(-c2ccc(F)cc2)c1 (stereo not shown) [EXAMPLE 96, 3-(4′,6-difluorobiphenyl-3-yl)-6-(2-hydroxyethyl)-6-phenyl-1,3-oxazinan-2-one] | < 100 nM | – | – | 91.9% | –
15 | C[C@@H](c1ccc(-c2cccs2)cc1)N1CC[C@](CCCO)(c2ccccc2)OC1=O [EXAMPLE 216, (R)-6-(3-hydroxypropyl)-6-phenyl-3-((S)-1-(4-(thiophen-2-yl)phenyl)ethyl)-1,3-oxazinan-2-one] | < 100 nM | 92.6% | – | – | –
16 | CC1(c2cccc(Cl)c2)CCN(c2cccc(-c3ccccc3)c2)C(=O)O1 (stereo not shown) [EXAMPLE 79, 3-(biphenyl-3-yl)-6-(3-chlorophenyl)-6-methyl-1,3-oxazinan-2-one] | < 100 nM | – | – | 75.3% | –
17 | C[C@@H](C1CCCCC1)N1CC[C@](CCNS(C)(=O)=O)(c2ccc(F)cc2)OC1=O [EXAMPLE 318, N-(2-((S)-3-((S)-1-cyclohexylethyl)-6-(4-fluorophenyl)-2-oxo-1,3-oxazinan-6-yl)ethyl)methanesulfonamide] | < 100 nM | – | 83.8% | – | –
18 | COc1ccccc1-c1cccc(N2CCC(C)(c3ccccc3)OC2=O)c1 (stereo not shown) [EXAMPLE 21, 3-(2′-methoxybiphenyl-3-yl)-6-methyl-6-phenyl-1,3-oxazinan-2-one] | < 100 nM | – | – | 76.7% | –
19 | C[C@@H](c1ccc(-c2ccc(F)cc2)cc1)N1CC[C@](CCCOP(=O)(O)O)(c2ccccc2)OC1=O [EXAMPLE 310, 3-((R)-3-((S)-1-(4′-fluorobiphenyl-4-yl)ethyl)-2-oxo-6-phenyl-1,3-oxazinan-6-yl)propyl dihydrogen phosphate] | < 100 nM | – | 77.5% | – | –
20 | CC1(c2ccccc2)CCN(c2nccc(-c3ccc(F)cc3F)n2)C(=O)O1 (stereo not shown) [EXAMPLE 59, 3-(4-(2,4-difluorophenyl)pyrimidin-2-yl)-6-methyl-6-phenyl-1,3-oxazinan-2-one] | 100 to 1000 nM | – | – | 18% | –
21 | C[C@@H](c1ccc(F)cc1)N1CC[C@](CCC(N)=O)(c2ccccc2)OC1=O [EXAMPLE 415, 3-((R)-3-((S)-1-(4-fluorophenyl)ethyl)-2-oxo-6-phenyl-1,3-oxazinan-6-yl)propanamide] | < 100 nM | – | 87.6% | – | –
22 | C[C@@H](c1ccc(-c2ccc(F)cc2)cc1)N1CC[C@](CCCNS(C)(=O)=O)(c2ccccc2)OC1=O [EXAMPLE 270, N-(3-((R)-3-((S)-1-(4′-fluorobiphenyl-4-yl)ethyl)-2-oxo-6-phenyl-1,3-oxazinan-6-yl)propyl)methanesulfonamide] | < 100 nM | 96.1% | – | – | –
23 | COC(=O)c1ccccc1CN1CC[C@](CCCO)(c2ccc(F)cc2)OC1=O [EXAMPLE 352, (R)-methyl 2-((6-(4-fluorophenyl)-6-(3-hydroxypropyl)-2-oxo-1,3-oxazinan-3-yl)methyl)benzoate] | < 100 nM | – | 60.8% | – | –

The next lines start with results.

Row | IC50 | inhibition at 0.1 µM (100 nM compound) | inhibition at 0.1 µM (100 nM) | inhibition at 0.1111 µM [1] | Compound | inhibition at 0.1111 µM (read-out: Average % inhibition at 111.1 nM)
24 | < 100 nM | – | 70% | – | C[C@@H](c1ccc(Br)cc1)N1CC[C@](CCN2CC[C@@H](F)C2)(c2ccc(F)cc2)OC1=O [EXAMPLE 378, (R)-3-((S)-1-(4-bromophenyl)ethyl)-6-(4-fluorophenyl)-6-(2-((R)-3-fluoropyrrolidin-1-yl)ethyl)-1,3-oxazinan-2-one] | –
25 | < 100 nM | – | 96.4% | – | C[C@@H](c1ccc(Br)cc1F)N1CC[C@](CCCO)(c2ccc(F)cc2)OC1=O [EXAMPLE 581, (R)-3-((S)-1-(4-bromo-2-fluorophenyl)ethyl)-6-(4-fluorophenyl)-6-(3-hydroxypropyl)-1,3-oxazinan-2-one] | –
26 | < 100 nM | – | – | – | C[C@@H](c1ccc(Br)cc1)N1CC[C@](CCO)(c2ccccc2)OC1=O [EXAMPLE 396, (S)-3-((S)-1-(4-bromophenyl)ethyl)-6-(2-hydroxyethyl)-6-phenyl-1,3-oxazinan-2-one] | –
27 | < 100 nM | – | 97% | – | C[C@@H](c1cccc(Cl)c1)N1CC[C@](CCCO)(c2ccc(F)cc2)OC1=O [EXAMPLE 360, (R)-3-((S)-1-(3-chlorophenyl)ethyl)-6-(4-fluorophenyl)-6-(3-hydroxypropyl)-1,3-oxazinan-2-one] | –
28 | < 100 nM | 96.2% | – | – | CC[C@@H](c1ccc(-c2ccc(F)cc2F)cc1)N1CC[C@](CCCO)(c2ccc(F)cc2)OC1=O [EXAMPLE 261, (R)-3-((S)-1-(2′,4′-difluorobiphenyl-4-yl)propyl)-6-(4-fluorophenyl)-6-(3-hydroxypropyl)-1,3-oxazinan-2-one] | –
29 | < 100 nM | – | 98.2% | – | C[C@@H](c1ccc(Br)cc1)N1CC[C@](CC2(O)CC2)(c2ccc(F)cc2)OC1=O [EXAMPLE 500, (S)-3-((S)-1-(4-bromophenyl)ethyl)-6-(4-fluorophenyl)-6-((1-hydroxycyclopropyl)methyl)-1,3-oxazinan-2-one] | –
30 | < 100 nM | 96.8% | – | – | COc1ccc([C@H](C)N2CC[C@](CCO)(c3ccc(F)cc3)OC2=O)cc1 [EXAMPLE 195, (S)-6-(4-fluorophenyl)-6-(2-hydroxyethyl)-3-((S)-1-(4-methoxyphenyl)ethyl)-1,3-oxazinan-2-one] | –
31 | < 100 nM | – | 97.2% | – | C[C@@H](c1ccc(Cl)cc1)N1CC[C@](CC(C)(C)O)(c2ccc(F)cc2)OC1=O [EXAMPLE 381, (S)-3-((S)-1-(4-chlorophenyl)ethyl)-6-(4-fluorophenyl)-6-(2-hydroxy-2-methylpropyl)-1,3-oxazinan-2-one] | –
32 | < 100 nM | – | 94.5% | – | C[C@@H](c1ccc(Cl)c(F)c1)N1CC[C@](CCO)(c2ccc(F)cc2)OC1=O [EXAMPLE 533, (S)-3-((S)-1-(4-chloro-3-fluorophenyl)ethyl)-6-(4-fluorophenyl)-6-(2-hydroxyethyl)-1,3-oxazinan-2-one] | –
33 | > 100 nM | – | – | – | C=CC[C@@]1(c2ccc(F)cc2)CCN([C@H](C)c2ccc(Cl)c(F)c2)C(=O)O1 (single isomer, unassigned) [EXAMPLE 497 Isomer 3] | –
